Columns and labels:
TNF-α = experiment: tumor necrosis factor alpha (TNF-α) assay; format: cell-based; conditions: FIG. 1; y-axis TNF-α in picograms per milliliter, lower values mean lower inflammation in the cell
Experimental: (§1) The fractions isolated may be tested for activity against COX-2 or TNF-α using assays as would be known to those having skill in the art. Representative examples of such assays that could be used include a COX-2 inhibitory fluorometric assay or a TNF-α inhibitory fluorometric assay, each of which are commercially available from numerous suppliers.
(§2) The crude sample provided was dissolved in Ethyl acetate and dried down on Silica gel in a 1:3 ratio. Medium pressure chromatography was performed using a Teledyne-Isco combi-flash Torrent system. A 750 gram silica column was used with a Hexanes to Ethyl acetate gradient, which gave 11 fractions. Fraction A was then subjected to high pressure liquid chromatography on a preparative Silica NP column (250×20 mm), with a gradient between Hexanes to 20% ethyl acetate, which gave 4 fractions. The active fraction was further purified, with a gradient of Hexanes to 100% ethyl acetate on a preparative Silica NP column (250×20 mm), which gave 23 fractions. Fraction 17 was subjected to two rounds of NP hplc using an analytical Silica column (250×10 mm), which gave the final pure compound. An LC-20AD Shimadzu system and an SPD-20A UV detector was used for the hplc separations. All steps were guided using bioassay data from the COX-2 and TNF-α assays. […]

COX-2 = target: T1, COX-2 (Homo sapiens, UniProt P35354); experiment: COX-2 assay; format: biochemical; conditions: FIG. 2; compared to control diclofenac and dimethyl sulfoxide blank
T1 sequence (P35354 18-604): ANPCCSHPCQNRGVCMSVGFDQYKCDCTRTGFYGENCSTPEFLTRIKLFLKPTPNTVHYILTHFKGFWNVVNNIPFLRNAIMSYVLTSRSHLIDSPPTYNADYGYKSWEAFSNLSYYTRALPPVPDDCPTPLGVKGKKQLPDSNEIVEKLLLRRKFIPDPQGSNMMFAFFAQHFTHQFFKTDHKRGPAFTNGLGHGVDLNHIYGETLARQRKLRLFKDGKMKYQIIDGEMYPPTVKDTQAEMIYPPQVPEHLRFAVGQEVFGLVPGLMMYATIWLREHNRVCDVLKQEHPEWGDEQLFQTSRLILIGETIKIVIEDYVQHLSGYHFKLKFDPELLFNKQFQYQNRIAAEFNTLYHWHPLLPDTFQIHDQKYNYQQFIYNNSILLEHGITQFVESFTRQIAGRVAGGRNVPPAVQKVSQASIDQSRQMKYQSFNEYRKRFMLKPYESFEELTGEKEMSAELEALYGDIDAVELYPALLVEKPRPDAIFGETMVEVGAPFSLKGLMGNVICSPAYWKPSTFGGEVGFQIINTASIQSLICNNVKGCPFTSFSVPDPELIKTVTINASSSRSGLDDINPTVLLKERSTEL
Experimental: as §1, §2

In the case of `C[C@@]12CCC[C@@H]3c4ccccc4[C@@H](C[C@@H]31)OC2=O` [compound of formula (I)], the “inhibitory activity of TNF-α (levels of TNF-α)” value (TNF-α) was “inhibitory activity” and the “inhibitory activity on COX-2 (level of prostaglandins in the sample)” value (COX-2) was “limited to no inhibitory activity”.

— patent US11759448B2, “Methods for the treatment of inflammation” (University of South Florida, priority 2020, dated 2023)
